Measured values from patent publication US11878981B2, “Substituted 1,2,4-oxadiazoles as TRPA1 inhibitors” (Boehringer Ingelheim International GmbH, priority 2021, dated 2024).

Tests used:
[1] = system: human hepatocytes; assay: Assay C: Hepatocyte clearance; format: in vitro ADME; conditions: hepatocyte suspension, 5% species serum, test compound 1 μM, six hours
Description: Assay C: Hepatocyte Clearance
The metabolic degradation of the test compound is assayed in a hepatocyte suspension. Hepatocytes (cryopreserved) are incubated in Dulbecco's modified eagle medium (supplemented with 3.5 μg glucagon/500 mL, 2.5 mg insulin/500 mL and 3.75 mg/500 mL hydrocortison) containing 5% species serum.
The cells are incubated for six hours (incubator, orbital shaker) and samples ([…]) are taken at 0, 0.5, 1, 2, 4 and 6 hours. Samples are transferred into acetonitrile and pelleted by centrifugation (5 min). The supernatant is transferred to a new 96-deepwell plate, evaporated under nitrogen and resuspended.
Decline of Parent Compound is Analyzed by HPLC-MS/MS
CLint is calculated as follows CL_[…]=Dose/AUC=(C0/CD)/(AUD+clast/k)×1000/60. C0: initial concentration in the incubation [μM], CD: cell density of vital cells [10e6 cells/mL], AUD: area under the data [μM×h], clast: concentration of last data point [μM], k: slope of the regression line for parent decline [h−1].
The calculated in vitro hepatic intrinsic clearance can be scaled up to the intrinsic in vivo hepatic Clearance and used to predict hepatic in vivo blood clearance (CL) by the use of a liver model (well stirred model). CL_[…]_INVIVO [ml/min/kg]=(CL_[…] [μL/min/10e6cells]×hepatocellularity [10e6 cells/g liver]×liver factor [g/kg bodyweight])/1000 CL [ml/min/kg]=CL_[…]_INVIVO [ml/min/kg]×hepatic blood flow [ml/min/kg]/(CL_[…]_INVIVO [ml/min/kg]+hepatic blood flow [ml/min/kg]) Qh [%]=CL [ml/min/kg]/hepatic blood flow [ml/min/kg])
(§1) Hepatocellularity, human: 120×10e6 cells/g liver
(§2) Liver factor, human: 25.7 g/kg bodyweight
(§3) Blood flow, human: 21 ml/(min×kg)

[2] = Assay B: Microsomal clearance; format: in vitro ADME, human; conditions: pooled liver microsomes, 37° C., 1 mg/ml protein, test compound 1 μM, NADPH
Description: Assay B: Microsomal Clearance:
The metabolic degradation of the test compound is assayed at 37° C. with pooled liver microsomes. The final incubation volume of 100 μl per time point contains TRIS buffer pH 7.6 at RT (0.1 M), magnesium chloride (5 mM), microsomal protein (1 mg/ml) and the test compound at a final concentration of 1 μM.
Following a short preincubation period at 37° C., the reactions are initiated by addition of beta-nicotinamide adenine dinucleotide phosphate, reduced form (NADPH, 1 mM) and terminated by transferring an aliquot into solvent after different time points (0, 5, 15, 30, 60 min). Additionally, the NADPH-independent degradation is monitored in incubations without NADPH, terminated at the last time point. The [%] remaining test compound after NADPH independent incubation is reflected by the parameter c (control) (metabolic stability). The quenched incubations are pelleted by centrifugation (10000 g, 5 min).
An aliquot of the supernatant is assayed by LC-MS/MS for the amount of parent compound. The half-life (t½ INVITRO) is determined by the slope of the semilogarithmic plot of the concentration-time profile.
The intrinsic clearance (CL_[…]) is calculated by considering the amount of protein in the incubation: CL _[…] [μl/min/mg protein]=(Ln 2/(half-life [min]*protein content [mg/ml]))*1000 CL_[…]_INVIVO [ml/min/kg]=(CL_[…] [μL/min/mg protein]×MPPGL [mg protein/g liver]×liver factor [g/kg bodyweight])/1000 Qh [%]=CL [ml/min/kg]/hepatic blood flow [ml/min/kg])
as §1, §2, §3

[3] = biological target: T1, human TRPA1 ion channel (Homo sapiens, UniProt O75762); assay: Assay A: TRPA1 assay (in vitro TRPA1 cell assay, FLIPR calcium); format: cell-based; conditions: read-out: hTRPA1 IC50
T1 construct: host or cells: HEK293
T1 sequence (O75762 whole entry): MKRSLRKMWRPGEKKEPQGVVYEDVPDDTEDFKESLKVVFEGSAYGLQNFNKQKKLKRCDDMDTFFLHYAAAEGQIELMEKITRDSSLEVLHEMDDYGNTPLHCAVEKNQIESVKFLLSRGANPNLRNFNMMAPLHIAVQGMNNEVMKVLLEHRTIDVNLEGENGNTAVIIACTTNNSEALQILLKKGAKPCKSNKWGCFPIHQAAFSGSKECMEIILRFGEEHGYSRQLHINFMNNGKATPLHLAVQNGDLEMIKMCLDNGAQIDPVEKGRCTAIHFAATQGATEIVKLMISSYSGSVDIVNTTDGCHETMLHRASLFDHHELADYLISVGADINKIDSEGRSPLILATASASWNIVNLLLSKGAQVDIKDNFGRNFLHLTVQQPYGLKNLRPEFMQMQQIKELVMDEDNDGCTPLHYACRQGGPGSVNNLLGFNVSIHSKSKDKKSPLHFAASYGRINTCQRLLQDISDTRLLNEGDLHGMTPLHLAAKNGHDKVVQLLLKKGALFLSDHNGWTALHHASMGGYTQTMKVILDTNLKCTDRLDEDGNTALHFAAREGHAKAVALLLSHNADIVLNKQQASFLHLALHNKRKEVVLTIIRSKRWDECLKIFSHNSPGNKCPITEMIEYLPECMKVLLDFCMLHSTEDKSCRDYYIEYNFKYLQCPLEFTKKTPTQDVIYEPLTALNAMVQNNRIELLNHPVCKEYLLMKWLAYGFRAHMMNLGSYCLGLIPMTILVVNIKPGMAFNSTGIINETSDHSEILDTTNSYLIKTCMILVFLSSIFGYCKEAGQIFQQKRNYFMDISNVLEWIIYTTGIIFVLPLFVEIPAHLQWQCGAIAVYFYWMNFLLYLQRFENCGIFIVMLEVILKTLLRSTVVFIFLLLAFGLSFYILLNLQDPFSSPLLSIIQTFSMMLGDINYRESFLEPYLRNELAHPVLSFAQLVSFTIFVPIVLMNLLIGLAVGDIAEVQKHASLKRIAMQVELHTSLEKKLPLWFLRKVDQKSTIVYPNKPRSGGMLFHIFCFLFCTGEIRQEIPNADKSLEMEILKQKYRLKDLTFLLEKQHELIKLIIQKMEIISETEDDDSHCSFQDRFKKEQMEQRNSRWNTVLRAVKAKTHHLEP
Description: A human HEK293 cell line over-expressing the human TRPA1 ion channel (Perkin Elmer, Product No. AX-004-PCL) is used as a test system for compound efficacy and potency. Compound activity is determined by measuring the effect of compounds on intracellular calcium concentration induced by AITC (Allylisothiocyanat) agonism in a FLIPRtetra system (Molecular Devices).
The cells are obtained as frozen cells in cryo-vials and stored until use at −150° C.
Cells are grown in culture medium (MEM/EBSS medium with 10% FCS and 0.4 mg/ML Geneticin). […] For sub-culturing cells are detached from flasks by Versene. At the day before the assay, cells are detached, washed twice with medium (MEM/EBSS medium with 10% FCS) and 20000 cells in 20 μl/well are seeded to Poly D-Lysin biocoated 384-well plates (black, clear bottom, Cat. 356697) from Corning. Plates are incubated for 24 hours at 37° C./5% CO2 before use in the assay.
The test compounds are dissolved in 100% DMSO at a concentration of 10 mM and in a first step diluted in DMSO to a concentration of 5 mM, followed by serial dilution steps in 100% DMSO. Dilution factor and number of dilution steps may vary according to needs. Typically 8 different concentrations by 1:5 dilutions are prepared, further intermediate dilutions (1:20) of the substances are carried out with HBSS/HEPES buffer (1×HEPES, Cat. 14065 from Gibco, 20 mM HEPES, Cat. 83264 from SIGMA, 0.1% BSA Cat. 11926 from Invitrogen, pH 7.4
At the assay day cells are washed 3× with assay puffer, 20 μL buffer remaining in the wells after washing. 10 μL Ca6 kit (Cat. R8191 MolecularDevices) loading buffer in HBSS/HEPES is added to the cells and the plates are incubated with lid for 120 minutes at 37°/5% CO2. 10 μL of compound or controls in HBSS/HEPES buffer/5% DMSO from the intermediate dilution plate are carefully added to the wells. […] Finally 10 μL of the agonist AITC 50 μM dissolved in HBSS/HEPES buffer/0.05% DMSO (final concentration 10 μM) is added to the wells followed by an additional read on the FLIPRtetra device for 10 minutes. The area under the signal curve (AUC) after AITC addition is used for IC50/% inhibition calculations
Data Evaluation and Calculation:
Each assay microtiter plate contains wells with vehicle (1% DMSO) controls instead of compound as controls for AITC induced luminescence (100% CTL; high controls) and wells with vehicle controls without AITC as controls for non-specific changes in luminescence (0% CTL; low controls).
The analysis of the data is performed by the calculation of the area under signal curve of the individual wells. Based on this values the % value for the measurement of each substance concentration is calculated (AUC(sample)−AUC(low))*100/(AUC(high)−AUC(low)) using MegaLab software (in house development). The IC50 values are calculated from the % control values using MegaLab software. Calculation: [y=(a−d)/(1+(x/c)^b)+d], a=low value, d=high value; x=conc M; c=IC50 M; b=hill; y=% ctrl

Row | SMILES | human Hepatocytes [% Qh] [1] [% Qh] | human LM [% Qh] [2] [% Qh] | IC50 [3] [nM]
1 | Cn1c(=O)n(C)c2c(=O)n(Cc3nc(C[C@H](O)c4ccc(F)cc4)no3)ncc21 [Example 3] | 13 | <23 | 147
2 | Cn1c(=O)n(C)c2c(=O)n(Cc3nc(C[C@H](O)c4cc5ccccc5o4)no3)ncc21 [Example 4] | 9 | <23 | 158
3 | Cn1cnc2cnn(Cc3nc(C[C@H](O)c4ccc(Cl)cc4)no3)c(=O)c21 [Example 5] | 23 | <23 | 60
4 | Cc1ccc([C@@H](O)Cc2noc(Cn3ncc4ncn(C)c4c3=O)n2)cc1 [Example 6] | 9 | <23 | 96
5 | Cn1cnc2cnn(Cc3nc(C[C@H](O)c4ccc5c(c4)OCO5)no3)c(=O)c21 [Example 7] | 9 | <23 | 204
6 | Cn1c(=O)n(C)c2c(=O)n(Cc3nc(C[C@H](O)c4cc5cc(Cl)ccc5o4)no3)ncc21 [Example 15] | 12 | <23 | 47
7 | Cn1c(=O)n(C)c2c(=O)n(Cc3nc(C[C@H](O)c4cc5cc(F)ccc5o4)no3)ncc21 [Example 16] | 14 | <23 | 79

The remaining molecules from weak to strong by IC50 [3], led by results:

Row | human Hepatocytes [% Qh] [1] [% Qh] | human LM [% Qh] [2] [% Qh] | IC50 [3] [nM] | SMILES
8 | 14 | <23 | 47 | Cc1ccc([C@@H](O)Cc2noc(Cn3ncc4c(c3=O)n(C)c(=O)n4C)n2)cc1 [Example 2]
9 | 39 | <23 | 41 | Cn1cnc2cnn(Cc3nc(C[C@H](O)c4ccc(Br)cc4)no3)c(=O)c21 [Example 8, 6-({3-[(2S)-2-(4-bromophenyl)-2-hydroxyethyl]-1,2,4-oxadiazol-5-yl}methyl)-1-methyl-1H,6H,7H-imidazo[4,5-d]pyridazin-7-one]
10 | 42 | 31 | 24 | Cn1cnc2cnn(Cc3nc(C[C@H](O)c4cc5ccccc5s4)no3)c(=O)c21 [Example 12]
11 | 10 | <23 | 22 | Cn1c(=O)n(C)c2c(=O)n(Cc3nc(C[C@H](O)c4ccc(Cl)cc4)no3)ncc21 [Example 1, 5-({3-[(2S)-2-(4-chlorophenyl)-2-hydroxyethyl]-1,2,4-oxadiazol-5-yl}methyl)-1,3-dimethyl-1H,2H,3H,4H,5H-imidazo[4,5-d]pyridazine-2,4-dione]
12 | 35 | 30 | 19 | Cn1cnc2cnn(Cc3nc(C[C@H](O)c4cc5cc(Cl)ccc5o4)no3)c(=O)c21 [Example 11]
13 | 43 | <23 | 19 | Cn1c(=O)n(C)c2c(=O)n(Cc3nc(C[C@H](O)c4cc5ccccc5s4)no3)ncc21 [Example 14]
14 | 29 | <23 | 13 | Cn1cnc2cnn(Cc3nc(C[C@H](O)c4cc5cc(F)ccc5o4)no3)c(=O)c21 [Example 10]
15 | 43 | 41 | 9 | Cn1cnc2cnn(Cc3nc(C[C@H](O)c4cc5ccc(F)cc5s4)no3)c(=O)c21 [Example 9]
16 | – | 36 | 9 | Cn1c(=O)n(C)c2c(=O)n(Cc3nc(C[C@H](O)c4cc5ccc(F)cc5s4)no3)ncc21 [Example 13]
